Experiment: gradient 5% acetonitrile 3 min, to 50% in 2 min, to 85% in 15 min, held 3 min, 100 µL/min
Details: column: Zorbax Extend-C18 2.1 x 50 mm; eluents: water / acetonitrile, 0.1% formic acid
How it was run: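 Pure standards were analyzed in mixtures of ~100 molecules using HPLC coupled to a quadrupole time-of-flight mass spectrometer, in both positive and negative ionization mode. Separation used a Zorbax Extend-C18 column (2.1 × 50 mm, 1.8 μm) at 100 μL/min, with water and acetonitrile each containing 0.1% formic acid. Dead and dwell volumes were 40 μL and 900 μL, and data were collected over 3 months. Retention time was read from computationally picked adduct peaks, each inspected manually.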

O=C(Nc1cccc(Br)c1)NC1CCN(c2ccc(F)cc2)C1=O (centres undefined)
RP-LC retention time: 818 s

CCOc1ccc(-c2csc(Cc3nc(-c4ccccc4C)no3)n2)cc1
RP-LC retention time: 1310 s

Cc1n[nH]c(C)c1S(=O)(=O)N1CCN(c2ccc3nnc(C4CC4)n3n2)CC1
RP-LC retention time: 604 s

CCCc1ccc(S(=O)(=O)N2CCC(c3nc4ccncc4n3CCOC)C2)cc1 (centres undefined)
RP-LC retention time: 610 s

COc1ccc(-c2csc(NC(=O)CSc3nc4c(cc3C#N)CCCC4)n2)cc1
RP-LC retention time: 1180 s

CC(=O)Nc1nsc(N2CCC(C(=O)N3CCN(c4ccc(F)cc4)CC3)CC2)n1
RP-LC retention time: 680 s

O=C(c1cccs1)N1CCN(S(=O)(=O)c2cc(-c3noc(C4CCC4)n3)cs2)CC1
RP-LC retention time: 998 s

CCOC(=O)c1[nH]c(C(=O)O)c(OC(=O)CC)c1C
RP-LC retention time: 912 s

Cc1ccc(NC(=O)CN2C(=O)C3CCCCN3c3ccc(S(=O)(=O)N(C)C)cc32)nc1 (centres undefined)
RP-LC retention time: 828 s

COc1cc(NC(=O)c2c(OC)cc(=O)n3c2CCCC3)cc(OC)c1OC
RP-LC retention time: 779 s

COCCNC(=O)CN1CCN(c2cc(C(=O)O)c3cc(NC(=O)c4ccccc4)ccc3n2)CC1
RP-LC retention time: 592 s

COc1cccc(OC(=O)c2cn(CC(C)C)c(=O)c3ccccc23)c1
RP-LC retention time: 1210 s

Cc1cccc(-c2nnc(-c3nc(NCc4ccco4)c4ccccc4n3)o2)c1
RP-LC retention time: 1010 s

O=C(Cc1csc(NC(=O)C2CC2)n1)Nc1ccc(Cl)c(Cl)c1
RP-LC retention time: 827 s

COc1ccc2c(c1)C=C(C(=O)NCc1ccc(OC)c(OC)c1)CO2
RP-LC retention time: 805 s

O=c1c2c(CO)c(-c3ccccc3)nn2ccn1Cc1cccc(F)c1
RP-LC retention time: 920 s

CC1CC(=O)N(CC(=O)Nc2ccc(Cl)cc2)c2ccccc2S1(=O)=O (centres undefined)
RP-LC retention time: 843 s

COc1ccc(CCN2C(=O)C(NC(=O)C3CC3)(C(F)(F)F)C3=C2CC(C)(C)CC3=O)cc1OC (centres undefined)
RP-LC retention time: 847 s

Cc1cc(C)c(C)c(S(=O)(=O)NCC(=O)NCC2CCCO2)c1C (centres undefined)
RP-LC retention time: 724 s

Cc1ccc(CN2CCC3(CC2)CC(C)(O)CCO3)nc1 (centres undefined)
RP-LC retention time: 556 s

CCCN1CCN(C(=O)C2CCN(S(=O)(=O)c3cc(C(=O)N4CCCC4)n(C)c3)CC2)CC1
RP-LC retention time: 574 s

O=C(C1CCCO1)N1CCc2ccc(NS(=O)(=O)c3ccc(F)c(Cl)c3)cc21 (centres undefined)
RP-LC retention time: 813 s

COc1ccc(Cl)cc1C(=O)N1CCN(c2cc(-n3nc(C)cc3C)nc(C)n2)CC1
RP-LC retention time: 988 s

CC(NC(=O)c1ccco1)C(=O)NCc1nn(C)c2ccccc12 (centres undefined)
RP-LC retention time: 646 s

O=C(Nc1ccc(F)cc1)N1CCN(Cc2nc3cc(-c4ccccc4)ccc3o2)CC1
RP-LC retention time: 860 s

COCCn1c(-c2ccccc2)cnc1SCC(=O)Nc1ccccc1
RP-LC retention time: 669 s

Cc1ccc(OCc2nnc3sc(C4COc5ccccc5O4)nn23)cc1 (centres undefined)
RP-LC retention time: 1010 s

Cc1ccc2c(c1Br)C(O)(CC(=O)c1ccc(F)cc1)C(=O)N2 (centres undefined)
RP-LC retention time: 802 s

Cc1cccc(-c2noc(Cn3ccnc3)n2)c1
RP-LC retention time: 630 s

COc1cc(CN2CCc3nc(N4CCCC4)ncc3C2)ccc1OC(C)C
RP-LC retention time: 641 s

O=C(c1ccccc1)N1CCCC1c1nc(-c2ccccc2Cl)no1 (centres undefined)
RP-LC retention time: 978 s

Cc1cc2nc(C(=O)Nc3ccc(F)c(F)c3)cc(C)n2n1
RP-LC retention time: 986 s

CCOc1cc(=O)n2c(c1C(=O)Nc1cc(Cl)ccc1F)CCCC2
RP-LC retention time: 806 s

CCc1cccc(C)c1NC(=O)Cn1c(C)nc2c(sc3nc(-c4ccccc4)ccc32)c1=O
RP-LC retention time: 1110 s

Cc1noc2ncn(CC(=O)NCc3cccc(F)c3)c(=O)c12
RP-LC retention time: 712 s

Cc1ccc(-n2c(=O)n(CC(=O)Nc3ccc(C)cc3C)c3cccnc32)cc1
RP-LC retention time: 907 s

Cc1oc(-c2ccccc2)nc1CN(c1ccccc1)S(=O)(=O)c1cccs1
RP-LC retention time: 1150 s

CC1CCN(c2ccc(N3CCN(S(=O)(=O)c4cc(F)ccc4F)CC3)nn2)CC1
RP-LC retention time: 606 s

Cc1[nH]c(C(=O)N2CCCC(C(=O)NCc3ccc(OC(C)C)cc3)C2)c(C)c1C(=O)OC(C)C (centres undefined)
RP-LC retention time: 929 s

CC(=O)N1CCC(C2CCN(C(=O)C3CC=CCC3)C2)CC1 (centres undefined)
RP-LC retention time: 691 s

COC[C@@H]1CN(S(=O)(=O)C(C)C)C[C@H]1c1ccccn1
RP-LC retention time: 619 s

CN1C(=O)C2CCCCN2c2ccc(C(=O)N3CCN(Cc4ccc5c(c4)OCO5)CC3)cc21 (centres undefined)
RP-LC retention time: 638 s

CS(=O)(=O)N1CCC(OC2CCN(C(=O)NCCc3ccccc3)CC2)CC1
RP-LC retention time: 724 s

Cc1ccc(-c2nc3ccccn3c2NC(=O)NCc2ccco2)cc1
RP-LC retention time: 629 s
